pIC50: −log10 of the molar value. Where two headings read alike, the source gives them in different places.
Assays:
[1] = system: MM-1 cells; test: MTT assay of cell growth and survival, MM-1 cells; format: cell-based
Method: All compounds are tested for purity (HPLC, NMR) and the calculated molecular weight is used to make up a 10 mM stock solution of each compound (in 100% dimethylsulfoxide or 50% dimethylsulfoxide:50% polyethylene glycol 300). Compounds are diluted into cell culture media consisting of RPMI 1640 with 10% fetal bovine serum to a final starting concentration of 10 μM. [Highest final DMSO content=0.1%.]. Tumor cells (20,000 for non-adherent cells; 5,000 for adherent cells) are plated into individual wells of a 96-well culture plate in 0.1 ml of culture media. Diluted compounds are added to individual wells containing pre-plated cells (final volume 0.2 ml) and incubated at 37° C. for 24 to 72 h. Wells receiving vehicle alone acted as a control.
MTT (viability) assay. MTT reagent (20 μl of 5 mg/ml stock solution, Sigma) is added to the cells and the plates are incubated at 37° C. for another 2 h. Cells are lysed by adding 100 μl of lysis buffer (20% SDS in 50% N,N-dimethylformamide (Sigma) adjusted to pH 4.7 by 80% acetic acid and 1 M HCl such that the final concentration of acetic acid is 2.5% and HCl is 2.5%) into each well and incubated for 6 h. The OD570 of each sample is determined by using a SPECTRA MAX M2 plate reader (Molecular Devices). The OD in control and treated wells is used as an estimate of the effect of compounds on cell growth and survival.
Cell lines. […] A375 melanoma cells were grown and maintained in the same media. Ba/F3 parental cells were grown in RPMI 1640 containing 10% heat inactivated fetal bovine serum and 2 mM glutamine supplemented with IL-3 (1 ng/ml) while Ba/F3 cells stably expressing Bcr/Abl or the T315I mutant of Bcr/Abl were grown in RPMI 1640 containing 10% heat inactivated fetal bovine serum and 2 mM glutamine in the absence of IL-3. Normal human dermal fibroblasts (NHDF) were obtained from Cambrex (Walkersville, Md.) and grown in specially formulated media (obtained through Cambrex) with 20% fetal calf serum.
IC50 determinations. The anti-tumor activity of certain compounds of the present invention against MM-1 cell lines was investigated and the IC50 values calculated (FIGS. 33A-F). In a typical experiment, MM-1 cell lines were incubated with a range of compound concentrations for 72 h to determine the concentration required to inhibit cell growth or induce apoptosis by 50% (IC50). MTT assays as described above were used to conduct this analysis.

[2] = system: p70 and p55 tyrosine phosphorylation; test: Phosphotyrosine (4G10) immunoblot in B-cell malignancy cell lines; format: cell-based
Method: MM-1 cells were pretreated with Degrasyn (at the concentration indicated) for 2 h before the addition of IL-6 for 15 min (as noted). Total cell lysates were prepared and equal protein aliquots were resolved by SDS-PAGE and immunoblotted for phosphotyrosine (4G10).
MM-1 and LP (lymphoma) cells were treated with Degrasyn (at the concentration indicated) for 2 h before cell lysates were prepared and equal protein aliquots were resolved by SDS-PAGE and immunoblotted for phosphotyrosine (4G10).
MM-1 and Mino (Mantle cell lymphoma) cells were treated with Degrasyns with different levels of anti-tumor efficacy (at the concentration indicated) for 2 h before cell lysates were prepared and equal protein aliquots were resolved by SDS-PAGE and immunoblotted for phosphotyrosine (4G10).
MM-1 cells were treated as indicated before analysis of cellular tyrosine phosphorylation by immunoblotting. Both p70 and p55 were tyrosine phosphorylated after 15 min of Degrasyn treatment which peaks in intensity after 1 h and remains higher than control levels after 4 h. These early changes may underlie or be a marker of Degrasyn activity in B-cell malignancies.
Western Blot analysis. Cells were harvested, washed twice in cold 1×PBS and lysed in modified RIPA lysis buffer (150 mM NaCl, 1% NP-40, 0.5% Na-deoxycholate [DOC], 0.1% Na-dodecyl sulfate [SDS], 50 mM Tris-HCl (pH 7.5), 1 mM EDTA, 1 mM NaF, 2 mM Na-vanadate, with protease inhibitors (1 mM PMSF, 1 mM benzamidine, 10 μg/ml aprotinin, 10 μg/ml leupeptin) on ice for 30 min. The lysed cells were centrifuged at 13,000 rpm for 30 min and the supernatant collected. The protein concentration of the cell lysate was determined by the Bradford Protein Assay. Fifty to 60 μg of protein were resolved in a 10% SDS-PAGE, and transferred to a PVDF membrane. Western blotting was performed using specific primary antibodies Peroxidase-conjugated affiniPure anti-Mouse Anti-Rabbit secondary antibodies (Jackson Immunoresearch Laboratories, West Grove, Pa.). The proteins were visualized with ECL Plus reagents (Amersham Biosciences).

CCC[C@H](NC(=O)/C(C#N)=C/c1cccc(Br)n1)c1ccccc1 [Degrasyn]
pIC50 ([1]; FIG. 21, anti-tumor activity, read-out: IC50 for MM-1 cells): 5.85 | pIC50 ([1]; FIG. 31, 72 h, MTT, average of 4 determinations, read-out: IC50, MM-1 cells): ~5.92 | Tyrosine phosphorylated protein species (~70 kDa, ~55 kDa) ([2]; 2 h, MM-1, LP or Mino cells): increased | Time at which p70 and p55 were tyrosine phosphorylated ([2]; MM-1): 15 min | Time of peak intensity of p70 and p55 tyrosine phosphorylation ([2]; MM-1): 1 h | Tyrosine phosphorylated protein species (~70 kDa, ~55 kDa), with IL-6 ([2]; MM-1, 2 h pretreatment, IL-6 15 min): increased
